Assay results reported in the kinase profiling compilation of Christmann-Franck et al. (2016).

Tests used:
Assay in all cases: KINOMEscan competition binding
Details in all cases: compound 10.0 µM
[1] = molecular target: TLK1 (human) (UniProt Q9UKI8)
[2] = molecular target: DDR2 (human) (UniProt Q16832)
[3] = molecular target: EPHA3 (human) (UniProt P29320)
[4] = molecular target: CDKL2 (human) (UniProt Q92772)
[5] = molecular target: MAP4K5 (human) (UniProt Q9Y4K4)
[6] = molecular target: PHKG2 (human) (UniProt P15735)
[7] = molecular target: PIM1 (human) (UniProt P11309)
[8] = molecular target: MUSK (human) (UniProt O15146)
MUSK (human), sequence (O15146 whole entry, looked up): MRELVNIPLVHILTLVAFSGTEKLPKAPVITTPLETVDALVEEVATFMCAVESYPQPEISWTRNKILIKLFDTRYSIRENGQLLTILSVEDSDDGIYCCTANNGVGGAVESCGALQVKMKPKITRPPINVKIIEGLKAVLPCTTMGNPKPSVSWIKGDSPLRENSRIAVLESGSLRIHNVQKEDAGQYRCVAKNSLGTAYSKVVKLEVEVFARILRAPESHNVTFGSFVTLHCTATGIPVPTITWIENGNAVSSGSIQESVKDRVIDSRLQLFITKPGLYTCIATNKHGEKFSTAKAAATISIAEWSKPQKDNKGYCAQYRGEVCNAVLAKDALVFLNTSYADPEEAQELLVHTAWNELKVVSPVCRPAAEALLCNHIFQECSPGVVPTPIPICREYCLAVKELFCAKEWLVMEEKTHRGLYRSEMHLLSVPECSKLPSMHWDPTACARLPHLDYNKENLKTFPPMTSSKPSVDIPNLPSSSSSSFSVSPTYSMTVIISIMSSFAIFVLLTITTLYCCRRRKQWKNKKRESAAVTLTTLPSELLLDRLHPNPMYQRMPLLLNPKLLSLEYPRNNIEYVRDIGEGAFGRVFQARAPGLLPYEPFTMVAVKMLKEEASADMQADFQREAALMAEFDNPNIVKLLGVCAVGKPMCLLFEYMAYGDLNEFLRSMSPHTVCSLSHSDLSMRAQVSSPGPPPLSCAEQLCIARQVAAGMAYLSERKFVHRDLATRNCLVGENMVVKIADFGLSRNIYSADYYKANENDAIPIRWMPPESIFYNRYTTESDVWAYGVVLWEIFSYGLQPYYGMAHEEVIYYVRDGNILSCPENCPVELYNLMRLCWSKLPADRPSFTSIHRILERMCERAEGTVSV

[9] = molecular target: MARK1 (human) (UniProt Q9P0L2)
[10] = molecular target: CaMK1 (human) (UniProt Q14012)
[11] = molecular target: MAPK12 (human) (UniProt P53778)
[12] = molecular target: MYLK2 (human) (UniProt Q9H1R3)
MYLK2 (human), sequence (Q9H1R3 whole entry, looked up): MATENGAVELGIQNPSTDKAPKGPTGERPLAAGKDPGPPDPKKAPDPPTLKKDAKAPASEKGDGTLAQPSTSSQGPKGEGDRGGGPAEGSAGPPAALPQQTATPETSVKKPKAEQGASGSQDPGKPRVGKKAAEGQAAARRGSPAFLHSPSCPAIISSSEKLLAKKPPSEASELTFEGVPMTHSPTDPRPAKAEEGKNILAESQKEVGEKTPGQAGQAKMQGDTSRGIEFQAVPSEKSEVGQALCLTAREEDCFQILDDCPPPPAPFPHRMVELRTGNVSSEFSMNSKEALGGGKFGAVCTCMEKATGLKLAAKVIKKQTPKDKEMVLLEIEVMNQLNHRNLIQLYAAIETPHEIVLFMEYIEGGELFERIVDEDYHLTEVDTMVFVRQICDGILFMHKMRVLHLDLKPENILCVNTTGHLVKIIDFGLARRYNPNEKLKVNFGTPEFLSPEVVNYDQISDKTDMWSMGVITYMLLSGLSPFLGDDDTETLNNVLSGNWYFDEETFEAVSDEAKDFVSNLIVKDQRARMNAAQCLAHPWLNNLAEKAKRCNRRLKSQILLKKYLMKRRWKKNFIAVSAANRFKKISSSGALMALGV

[13] = molecular target: RPS6KA6 KD1 (human) (UniProt Q9UK32)
[14] = molecular target: PRKACB (human) (UniProt P22694)
[15] = molecular target: JAK1 JH1 catalytic (human) (UniProt P23458)
[16] = molecular target: MAPK4 (human) (UniProt P31152)
[17] = molecular target: AURKA (human) (UniProt O14965)
[18] = molecular target: MAP3K9 (human) (UniProt P80192)
MAP3K9 (human), sequence (P80192 whole entry, looked up): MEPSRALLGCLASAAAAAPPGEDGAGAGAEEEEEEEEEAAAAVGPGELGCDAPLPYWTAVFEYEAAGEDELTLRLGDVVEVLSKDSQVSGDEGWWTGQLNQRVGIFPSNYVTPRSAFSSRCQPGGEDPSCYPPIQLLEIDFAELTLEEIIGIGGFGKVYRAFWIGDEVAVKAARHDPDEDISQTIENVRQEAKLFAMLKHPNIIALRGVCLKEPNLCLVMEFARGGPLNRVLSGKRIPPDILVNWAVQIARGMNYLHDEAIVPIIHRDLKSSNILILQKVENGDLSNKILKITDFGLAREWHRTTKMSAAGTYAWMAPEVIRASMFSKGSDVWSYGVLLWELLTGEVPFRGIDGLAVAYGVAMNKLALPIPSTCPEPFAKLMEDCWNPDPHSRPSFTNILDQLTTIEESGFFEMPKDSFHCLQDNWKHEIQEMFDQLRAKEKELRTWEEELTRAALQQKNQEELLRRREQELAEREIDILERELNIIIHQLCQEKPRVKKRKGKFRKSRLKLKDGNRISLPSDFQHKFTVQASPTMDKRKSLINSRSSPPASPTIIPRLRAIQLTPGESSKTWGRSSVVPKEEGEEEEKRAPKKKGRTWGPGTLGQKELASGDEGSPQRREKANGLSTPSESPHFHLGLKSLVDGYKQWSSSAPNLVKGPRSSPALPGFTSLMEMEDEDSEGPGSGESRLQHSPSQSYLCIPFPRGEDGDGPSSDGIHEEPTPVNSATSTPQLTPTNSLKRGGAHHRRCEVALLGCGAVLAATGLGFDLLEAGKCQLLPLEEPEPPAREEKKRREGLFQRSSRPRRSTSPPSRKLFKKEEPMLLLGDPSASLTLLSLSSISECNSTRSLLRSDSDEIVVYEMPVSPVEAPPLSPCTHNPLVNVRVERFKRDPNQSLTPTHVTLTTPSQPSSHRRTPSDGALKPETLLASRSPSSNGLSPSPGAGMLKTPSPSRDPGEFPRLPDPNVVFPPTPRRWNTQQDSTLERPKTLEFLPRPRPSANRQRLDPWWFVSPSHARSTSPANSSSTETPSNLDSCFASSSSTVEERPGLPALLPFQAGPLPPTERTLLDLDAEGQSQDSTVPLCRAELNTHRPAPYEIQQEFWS

[19] = molecular target: SRC (human) (UniProt P12931)
[20] = molecular target: CDC42BPB (human) (UniProt Q9Y5S2)
[21] = molecular target: CDK7 (human) (UniProt P50613)
[22] = molecular target: DAPK3 (human) (UniProt O43293)
[23] = molecular target: EPHB1 (human) (UniProt P54762)
[24] = molecular target: RIOK2 (human) (UniProt Q9BVS4)
[25] = molecular target: NEK7 (human) (UniProt Q8TDX7)
[26] = molecular target: JAK2 JH1 catalytic (human) (UniProt O60674)
[27] = molecular target: EIF2AK2 (human) (UniProt P19525)
[28] = molecular target: RIPK2 (human) (UniProt O43353)
[29] = molecular target: CSNK1E (human) (UniProt P49674)
CSNK1E (human), sequence (P49674 whole entry, looked up): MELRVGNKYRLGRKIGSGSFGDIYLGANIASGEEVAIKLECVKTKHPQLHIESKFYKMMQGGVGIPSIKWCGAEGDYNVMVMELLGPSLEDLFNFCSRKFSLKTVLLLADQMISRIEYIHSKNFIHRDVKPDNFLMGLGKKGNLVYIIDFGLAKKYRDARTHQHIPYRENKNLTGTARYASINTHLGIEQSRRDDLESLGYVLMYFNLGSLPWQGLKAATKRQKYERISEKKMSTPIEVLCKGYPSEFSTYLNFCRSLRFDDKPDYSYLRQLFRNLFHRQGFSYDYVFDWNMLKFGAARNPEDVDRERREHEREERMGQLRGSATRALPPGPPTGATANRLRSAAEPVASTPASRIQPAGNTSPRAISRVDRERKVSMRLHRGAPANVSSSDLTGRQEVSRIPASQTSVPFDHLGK

[30] = molecular target: PIP4K2B (human) (UniProt P78356)
[31] = molecular target: ROS1 (human) (UniProt P08922)
[32] = molecular target: BMPR2 (human) (UniProt Q13873)
[33] = molecular target: IRAK3 (human) (UniProt Q9Y616)
IRAK3 (human), sequence (Q9Y616 whole entry, looked up): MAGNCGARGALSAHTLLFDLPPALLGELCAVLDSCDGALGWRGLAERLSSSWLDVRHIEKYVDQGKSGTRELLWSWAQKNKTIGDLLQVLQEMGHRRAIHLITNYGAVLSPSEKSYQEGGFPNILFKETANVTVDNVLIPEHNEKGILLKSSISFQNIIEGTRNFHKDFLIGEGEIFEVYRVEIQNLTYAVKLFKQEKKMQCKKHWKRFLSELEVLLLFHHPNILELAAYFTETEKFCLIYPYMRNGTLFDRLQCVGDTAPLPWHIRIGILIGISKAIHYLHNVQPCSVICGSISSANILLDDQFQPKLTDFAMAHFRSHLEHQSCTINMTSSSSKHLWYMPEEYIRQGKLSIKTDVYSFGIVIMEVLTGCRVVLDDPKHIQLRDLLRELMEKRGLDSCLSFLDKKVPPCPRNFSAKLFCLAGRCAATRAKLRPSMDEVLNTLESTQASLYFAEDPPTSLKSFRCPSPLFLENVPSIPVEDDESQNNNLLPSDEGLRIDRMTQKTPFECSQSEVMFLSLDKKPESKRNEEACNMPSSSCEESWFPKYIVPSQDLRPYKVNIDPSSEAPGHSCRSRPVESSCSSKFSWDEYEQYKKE

[34] = molecular target: TSSK1B (human) (UniProt Q9BXA7)
[35] = molecular target: PRKACA (human) (UniProt P17612)
[36] = molecular target: CLK3 (human) (UniProt P49761)
[37] = molecular target: HIPK1 (human) (UniProt Q86Z02)
[38] = molecular target: MAPK1 (human) (UniProt P28482)
MAPK1 (human), sequence (P28482 whole entry, looked up): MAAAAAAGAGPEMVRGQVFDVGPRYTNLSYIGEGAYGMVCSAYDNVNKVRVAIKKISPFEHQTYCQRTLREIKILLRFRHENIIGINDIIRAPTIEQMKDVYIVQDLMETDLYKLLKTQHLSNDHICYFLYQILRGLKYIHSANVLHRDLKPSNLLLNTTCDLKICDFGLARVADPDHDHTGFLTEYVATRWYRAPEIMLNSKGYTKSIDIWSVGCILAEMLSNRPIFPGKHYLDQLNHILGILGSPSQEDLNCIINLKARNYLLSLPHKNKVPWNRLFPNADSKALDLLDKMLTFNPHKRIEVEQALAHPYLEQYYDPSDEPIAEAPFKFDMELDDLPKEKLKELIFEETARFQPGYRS

[39] = molecular target: NEK6 (human) (UniProt Q9HC98)
[40] = molecular target: EPHB3 (human) (UniProt P54753)

DDR2 (human), sequence (Q16832 whole entry, looked up): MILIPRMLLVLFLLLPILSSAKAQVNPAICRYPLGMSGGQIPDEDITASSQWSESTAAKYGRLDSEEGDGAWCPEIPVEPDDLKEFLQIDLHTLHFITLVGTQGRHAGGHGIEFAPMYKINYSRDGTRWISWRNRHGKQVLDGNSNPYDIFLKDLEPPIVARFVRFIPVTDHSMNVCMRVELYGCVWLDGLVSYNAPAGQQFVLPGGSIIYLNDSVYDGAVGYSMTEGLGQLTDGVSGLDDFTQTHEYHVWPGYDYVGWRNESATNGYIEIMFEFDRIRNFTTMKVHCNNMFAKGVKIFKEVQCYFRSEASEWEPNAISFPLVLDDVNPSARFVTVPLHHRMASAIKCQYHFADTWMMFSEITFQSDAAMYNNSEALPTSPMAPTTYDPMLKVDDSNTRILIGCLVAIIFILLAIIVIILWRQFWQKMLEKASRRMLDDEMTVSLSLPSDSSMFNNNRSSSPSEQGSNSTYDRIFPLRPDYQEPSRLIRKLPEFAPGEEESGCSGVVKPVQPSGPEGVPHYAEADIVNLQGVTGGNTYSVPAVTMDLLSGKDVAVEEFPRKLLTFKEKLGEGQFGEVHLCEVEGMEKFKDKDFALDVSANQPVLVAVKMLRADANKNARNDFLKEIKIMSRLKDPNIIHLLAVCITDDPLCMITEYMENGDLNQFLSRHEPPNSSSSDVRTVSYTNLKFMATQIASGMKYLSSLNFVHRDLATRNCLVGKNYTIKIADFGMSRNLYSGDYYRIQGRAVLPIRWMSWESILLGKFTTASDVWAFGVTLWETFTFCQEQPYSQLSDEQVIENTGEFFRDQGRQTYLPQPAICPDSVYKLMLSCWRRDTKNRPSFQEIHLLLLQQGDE

Structure (SMILES) | kinase still bound, per cent of control [1] | kinase still bound, per cent of control [2] | kinase still bound, per cent of control [3] | kinase still bound, per cent of control [4] | kinase still bound, per cent of control [6] | kinase still bound, per cent of control [7] | kinase still bound, per cent of control [8] | kinase still bound, per cent of control [9] | kinase still bound, per cent of control [10] | kinase still bound, per cent of control [11] | kinase still bound, per cent of control [12] | kinase still bound, per cent of control [13] | kinase still bound, per cent of control [14] | kinase still bound, per cent of control [15] | kinase still bound, per cent of control [16] | kinase still bound, per cent of control [17] | kinase still bound, per cent of control [18] | kinase still bound, per cent of control [19] | kinase still bound, per cent of control [20] | kinase still bound, per cent of control [21] | further results
CCN1CCN(Cc2ccc(Nc3ncc4c(n3)N(C)c3ccccc3C(=O)N4C)cc2C(F)(F)F)CC1 | 74% | 50% | 100% | 80% | 47% | 86% | 100% | 21% | 78% | 97% | 88% | 19% | 100% | 93% | 100% | 0.4% | 58% | 2% | 99% | 4% | kinase still bound, per cent of control [5]: 35%; kinase still bound, per cent of control [22]: 79%; kinase still bound, per cent of control [23]: 100%; kinase still bound, per cent of control [24]: 100%; kinase still bound, per cent of control [25]: 88%; kinase still bound, per cent of control [26]: 0%; kinase still bound, per cent of control [27]: 95%; kinase still bound, per cent of control [28]: 6.4%; kinase still bound, per cent of control [29]: 45%; kinase still bound, per cent of control [30]: 31%; kinase still bound, per cent of control [31]: 11%; kinase still bound, per cent of control [32]: 91%; kinase still bound, per cent of control [33]: 69%; kinase still bound, per cent of control [34]: 49%; kinase still bound, per cent of control [35]: 100%; kinase still bound, per cent of control [36]: 92%; kinase still bound, per cent of control [37]: 78%; kinase still bound, per cent of control [38]: 77%; kinase still bound, per cent of control [39]: 64%; kinase still bound, per cent of control [40]: 80%
CC[C@@H]1C(=O)N(C)c2cnc(Nc3ccc(C(=O)NC4CCN(C)CC4)cc3OC)nc2N1C1CCCC1 | 100% | 100% | 100% | 100% | 20% | 100% | 100% | 100% | 100% | 100% | 100% | 100% | 100% | 100% | 100% | 100% | 100% | 100% | 100% | 100% | kinase still bound, per cent of control [22]: 3.6%; kinase still bound, per cent of control [23]: 100%; kinase still bound, per cent of control [24]: 100%; kinase still bound, per cent of control [25]: 100%; kinase still bound, per cent of control [26]: 100%; kinase still bound, per cent of control [27]: 100%; kinase still bound, per cent of control [28]: 100%; kinase still bound, per cent of control [29]: 100%; kinase still bound, per cent of control [30]: 100%; kinase still bound, per cent of control [31]: 28%; kinase still bound, per cent of control [32]: 100%; kinase still bound, per cent of control [33]: 100%; kinase still bound, per cent of control [34]: 100%; kinase still bound, per cent of control [35]: 100%; kinase still bound, per cent of control [36]: 29%; kinase still bound, per cent of control [37]: 100%; kinase still bound, per cent of control [38]: 100%; kinase still bound, per cent of control [39]: 100%; kinase still bound, per cent of control [40]: 100%
